According to US11919965B2, “Methods of treating multiple myeloma with bispecific anti-BCMA x anti-CD3 antibodies” (Regeneron Pharmaceuticals, Inc., priority 2019, dated 2024):

Columns and labels:
monkey BCMA-MFC = assay: SPR (Biacore 4000) binding kinetics at 25° C.
Procedure: (§1) The CM5 Biacore sensor surface was derivatized by amine coupling with a monoclonal mouse anti-human Fc antibody (GE, #BR-1008-39) to capture purified anti-BCMA mAbs and anti-BCMA×anti-CD3 bispecific mAbs. All Biacore binding studies were performed in a buffer composed of 0.01M HEPES pH 7.4, 0.15M NaCl, 3 mM EDTA, 0.05% v/v Surfactant P20 (HBS-ET running buffer). […] Antigen samples were then injected over the anti-BCMA and anti-BCMA×anti-CD3 bispecific mAbs captured surfaces at a flow rate of 30 μL/minute. Antibody-reagent association was monitored for 5 minutes while dissociation in HBS-ET running buffer was monitored for 10 minutes. All of the binding kinetics experiments were performed at 25° C. Kinetic association (ka) and dissociation (kd) rate constants were determined by fitting the real-time sensorgrams to a 1:1 binding model using Scrubber 2.0c curve fitting software. Binding dissociation equilibrium constants (KD) and dissociative half-lives (t1/2) were calculated from the kinetic rate constants as: […]

monkey BCMA-MMH = assay: SPR (Biacore 4000) binding kinetics at 25° C.
Procedure: as §1

[1] = system: established BCMA-expressing NCI-H929 multiple myeloma tumors; assay: Xenogenic tumor model, established NCI-H929 tumors + human PBMC in NSG mice, treatment from day 5 (Example 12); assay type: in vivo, mouse; details: for Average Tumor Size (mm3) ± SEM on Day 5: day of first dose
Procedure: To determine the in vivo efficacy of anti-BCMA×anti-CD3 bispecific antibodies (Abs), a xenogenic tumor study was performed. Immunodeficient NOD.Cg-Prkdc^scidII2rg^tm1Wjl/SzJ (NSG) mice were subcutaneously implanted with a mixture of 10×10^6 BCMA-expressing NCI-H929 human multiple myeloma tumor cells and 0.5×10^6 human peripheral blood mononuclear cells (PBMC) isolated from a normal, healthy donor. The tumors were allowed to grow and establish for 5 days until they were approximately 70 mm^3 in size. […] The mice were administered these Abs twice per week for a total of seven doses, and tumor growth was assessed over 55 days.
Implantation and measurement of xenogenic tumors: NSG mice were subcutaneously implanted with a mixture of 10×10^6 BCMA-expressing NCI-H929 multiple myeloma cells and 0.5×10^6 PBMC derived from a normal, healthy donor. The tumors were allowed to grow and establish for 5 days until they were approximately 70 mm^3 in size. […] The mice were administered Abs twice per week for a total of seven doses. Tumor growth was measured with calipers twice per week for the duration of the experiment.
(§2) Calculation of xenogenic tumor growth and inhibition: In order to determine tumor volume by external caliper, the greatest longitudinal diameter (length in mm) and the greatest transverse diameter (width in mm) were determined. Tumor volumes based on caliper measurements were calculated by the formula: Volume (mm^3)=(length× width^2)/2.

[2] = system: BCMA-expressing MOLP-8 multiple myeloma tumors; assay: Xenogenic tumor model, MOLP-8 + human PBMC s.c. in NSG mice, dose response (Example 13); assay type: in vivo, mouse
Procedure: To determine the in vivo efficacy of anti-BCMA×anti-CD3 bispecific antibodies (Abs), a xenogenic tumor study was performed. Immunodeficient NOD.Cg-Prkdc^scidII2rg^tm1Wjl/SzJ (NSG) mice were subcutaneously implanted with a mixture of 5×10^6 BCMA-expressing MOLP-8 human multiple myeloma tumor cells and 1×10^6 human peripheral blood mononuclear cells (PBMC) isolated from a normal, healthy donor. […] The mice were administered these Abs twice per week for a total of seven doses, and tumor growth was assessed over 56 days. While the BCMA+ MOLP-8 tumors grew similarly in the vehicle- and CD3-binding control-treated mice, both BCMA×CD3 Abs that were tested prevented the growth of tumors in a dose-dependent manner in vivo.
Implantation and measurement of xenogenic tumors: NSG mice were subcutaneously implanted with a mixture of 5×10^6 BCMA-expressing MOLP-8 multiple myeloma cells and 1×10^6 PBMC derived from a normal, healthy donor. […] The mice were administered Abs twice per week for a total of seven doses. Tumor growth was measured by caliper twice per week for the duration of the experiment.
as §2

monkey BCMA-MFC, sequence (as listed by the source): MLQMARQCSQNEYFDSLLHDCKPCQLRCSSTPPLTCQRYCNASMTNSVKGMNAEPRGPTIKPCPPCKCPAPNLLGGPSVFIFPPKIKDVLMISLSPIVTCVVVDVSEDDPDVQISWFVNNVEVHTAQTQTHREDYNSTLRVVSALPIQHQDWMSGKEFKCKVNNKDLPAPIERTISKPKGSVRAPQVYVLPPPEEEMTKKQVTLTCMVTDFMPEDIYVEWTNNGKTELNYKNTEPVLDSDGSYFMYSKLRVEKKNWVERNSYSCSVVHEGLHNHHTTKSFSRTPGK
monkey BCMA-MMH, sequence (as listed by the source): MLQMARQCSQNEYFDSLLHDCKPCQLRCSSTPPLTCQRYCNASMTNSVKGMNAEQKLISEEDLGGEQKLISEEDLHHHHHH

Substance: REGN5459: anti-BCMA×anti-CD3 bispecific antibody: mAb21581 BCMA heavy chain, mAb7221G20 CD3 heavy chain and common light chain; SEQ ID NOs 126, 128, 129
- ka (monkey BCMA-MFC): 482000 M⁻¹ s⁻¹
- kd (monkey BCMA-MFC): 7.15e-05 s⁻¹
- ka (monkey BCMA-MMH): 223000 M⁻¹ s⁻¹
- kd (monkey BCMA-MMH): 0.00864 s⁻¹
- Average Tumor Size (mm3) ± SEM on Day 8 ([1]; 0.04 mg/kg): 152.3 ± 20.0 mm3
- Average Tumor Size (mm3) ± SEM on Day 12 ([1]; 0.04 mg/kg): 462.5 ± 57.7 mm3
- Average Tumor Size (mm3) ± SEM on Day 15 ([1]; 0.04 mg/kg): 1094.2 ± 78.9 mm3
- Average Tumor Size (mm3) ± SEM on Day 19 ([1]; 0.04 mg/kg): 2412.5 ± 184.6 mm3
- Average Tumor Size (mm3) ± SEM on Day 22 ([1]; 0.04 mg/kg): 3285.9 ± 227.3 mm3
- Average Tumor Size (mm3) ± SEM on Day 5 ([1]; 0.04 mg/kg): 74.9 ± 6.4 mm3
- Average Tumor Size (mm3) ± SEM on Day 8 ([1]; 0.4 mg/kg): 171.9 ± 23.2 mm3
- Average Tumor Size (mm3) ± SEM on Day 12 ([1]; 0.4 mg/kg): 233.8 ± 63.5 mm3
- Average Tumor Size (mm3) ± SEM on Day 15 ([1]; 0.4 mg/kg): 327.2 ± 135.6 mm3
- Average Tumor Size (mm3) ± SEM on Day 19 ([1]; 0.4 mg/kg): 606.2 ± 288.8 mm3
- Average Tumor Size (mm3) ± SEM on Day 22 ([1]; 0.4 mg/kg): 815.4 ± 387.1 mm3
- Average Tumor Size (mm3) ± SEM on Day 27 ([1]; 0.4 mg/kg): 1849.9 ± 903.1 mm3
- Average Tumor Size (mm3) ± SEM on Day 30 ([1]; 0.4 mg/kg): 661.8 ± 490.1 mm3
- Average Tumor Size (mm3) ± SEM on Day 35 ([1]; 0.4 mg/kg): 996.8 ± 771.0 mm3
- Average Tumor Size (mm3) ± SEM on Day 40 ([1]; 0.4 mg/kg): 375.6 ± 375.6 mm3
- Average Tumor Size (mm3) ± SEM on Day 55 ([1]; 0.4 mg/kg): 0 ± 0 mm3
- Average Tumor Size (mm3) ± SEM on Day 5 ([1]; 0.4 mg/kg): 69.5 ± 4.1 mm3
- Average Tumor Size (mm3) ± SEM on Day 8 ([1]; 4 mg/kg): 45.8 ± 9.8 mm3
- Average Tumor Size (mm3) ± SEM on Day 15 ([1]; 4 mg/kg): 0 ± 0 mm3
- Average Tumor Size (mm3) ± SEM on Day 19 ([1]; 4 mg/kg): 0 ± 0 mm3
- Average Tumor Size (mm3) ± SEM on Day 22 ([1]; 4 mg/kg): 0 ± 0 mm3
- Average Tumor Size (mm3) ± SEM on Day 27 ([1]; 4 mg/kg): 0 ± 0 mm3
- Average Tumor Size (mm3) ± SEM on Day 30 ([1]; 4 mg/kg): 0 ± 0 mm3
- Average Tumor Size (mm3) ± SEM on Day 35 ([1]; 4 mg/kg): 0 ± 0 mm3
- Average Tumor Size (mm3) ± SEM on Day 40 ([1]; 4 mg/kg): 0 ± 0 mm3
- Average Tumor Size (mm3) ± SEM on Day 55 ([1]; 4 mg/kg): 0 ± 0 mm3
- Average Tumor Size (mm3) ± SEM on Day 5 ([1]; 4 mg/kg): 61.8 ± 5.2 mm3
- Average Tumor Size (mm3) ± SEM on Day 3 ([2]; 0.04 mg/kg): 11.7 ± 2.1 mm3
- Average Tumor Size (mm3) ± SEM on Day 7 ([2]; 0.04 mg/kg): 37.0 ± 5.7 mm3
- Average Tumor Size (mm3) ± SEM on Day 10 ([2]; 0.04 mg/kg): 104 ± 23.0 mm3
- Average Tumor Size (mm3) ± SEM on Day 14 ([2]; 0.04 mg/kg): 356.7 ± 84.6 mm3
- Average Tumor Size (mm3) ± SEM on Day 17 ([2]; 0.04 mg/kg): 645.6 ± 140.9 mm3
- Average Tumor Size (mm3) ± SEM on Day 21 ([2]; 0.04 mg/kg): 1442.4 ± 310.7 mm3
- Average Tumor Size (mm3) ± SEM on Day 23 ([2]; 0.04 mg/kg): 2124.4 ± 444.1 mm3
- Average Tumor Size (mm3) ± SEM on Day 28 ([2]; 0.04 mg/kg): 1939.3 ± 840.6 mm3
- Average Tumor Size (mm3) ± SEM on Day 31 ([2]; 0.04 mg/kg): 2688.7 ± 1176.6 mm3
- Average Tumor Size (mm3) ± SEM on Day 35 ([2]; 0.04 mg/kg): 612.1 ± 0 mm3
- Average Tumor Size (mm3) ± SEM on Day 3 ([2]; 0.4 mg/kg): 14.0 ± 1.6 mm3
- Average Tumor Size (mm3) ± SEM on Day 7 ([2]; 0.4 mg/kg): 0 ± 0 mm3
- Average Tumor Size (mm3) ± SEM on Day 10 ([2]; 0.4 mg/kg): 0 ± 0 mm3
- Average Tumor Size (mm3) ± SEM on Day 14 ([2]; 0.4 mg/kg): 0 ± 0 mm3
- Average Tumor Size (mm3) ± SEM on Day 17 ([2]; 0.4 mg/kg): 0 ± 0 mm3
- Average Tumor Size (mm3) ± SEM on Day 21 ([2]; 0.4 mg/kg): 0 ± 0 mm3
- Average Tumor Size (mm3) ± SEM on Day 23 ([2]; 0.4 mg/kg): 0 ± 0 mm3
- Average Tumor Size (mm3) ± SEM on Day 28 ([2]; 0.4 mg/kg): 0 ± 0 mm3
- Average Tumor Size (mm3) ± SEM on Day 31 ([2]; 0.4 mg/kg): 0 ± 0 mm3
- Average Tumor Size (mm3) ± SEM on Day 35 ([2]; 0.4 mg/kg): 0 ± 0 mm3
- Average Tumor Size (mm3) ± SEM on Day 42 ([2]; 0.4 mg/kg): 0 ± 0 mm3
- Average Tumor Size (mm3) ± SEM on Day 56 ([2]; 0.4 mg/kg): 0 ± 0 mm3
- Average Tumor Size (mm3) ± SEM on Day 3 ([2]; 4 mg/kg): 12.9 ± 1.3 mm3
- Average Tumor Size (mm3) ± SEM on Day 7 ([2]; 4 mg/kg): 0.6 ± 0.6 mm3
- Average Tumor Size (mm3) ± SEM on Day 10 ([2]; 4 mg/kg): 0 ± 0 mm3
- Average Tumor Size (mm3) ± SEM on Day 14 ([2]; 4 mg/kg): 0 ± 0 mm3
- Average Tumor Size (mm3) ± SEM on Day 17 ([2]; 4 mg/kg): 0 ± 0 mm3
- Average Tumor Size (mm3) ± SEM on Day 21 ([2]; 4 mg/kg): 0 ± 0 mm3
- Average Tumor Size (mm3) ± SEM on Day 23 ([2]; 4 mg/kg): 0 ± 0 mm3
- Average Tumor Size (mm3) ± SEM on Day 28 ([2]; 4 mg/kg): 1.9 ± 1.9 mm3
- Average Tumor Size (mm3) ± SEM on Day 31 ([2]; 4 mg/kg): 3.8 ± 3.0 mm3
- Average Tumor Size (mm3) ± SEM on Day 35 ([2]; 4 mg/kg): 9.3 ± 7.5 mm3
- Average Tumor Size (mm3) ± SEM on Day 42 ([2]; 4 mg/kg): 12.8 ± 12.8 mm3
- Average Tumor Size (mm3) ± SEM on Day 56 ([2]; 4 mg/kg): 17.2 ± 17.2 mm3
